Structures can show the parent of a compound that is named as a salt.
How the values were obtained:
Assay type in all cases: physicochemical
[1] = Dynamic vapor sorption (DVS) / hygroscopicity
[2] = Interconversion studies of Form 1 and Form 2 stirred in solvents; settings: isopropanol (50° C., 7 days), acetone (50° C., 3 days), acetone/water 9/1 v/v (50° C., 1 day; room temperature, 1 day)
Description: In interconversion studies, equal amounts of Form 1 and Form 2 were added in various solvents and stirred at various temperatures for several days.

[3] = Solid-state chemical and physical stability on storage

[2H]C([2H])([2H])CC(=O)c1cnc(NC(=O)C2CC2)cc1Nc1cccc(-c2ncn(C([2H])([2H])[2H])n2)c1OC [Form 1, N-(4-((2-methoxy-3-(1-(methyl-d3)-1H-1,2,4-triazol-3-yl)phenyl)amino)-5-(propanoyl-3,3,3-d3)pyridin-2-yl) cyclopropanecarboxamide hydrochloride]
Hygroscopicity [1]: slightly hygroscopic | Form change after DVS analysis ([1]; after DVS analysis): No form change | DVS reversable total mass change ([1]; between about 0% to about 80% relative humidity (RH) at 25° C.): about 0.2 wt. % | DVS reversable total mass change ([1]; between about 0% to about 90% relative humidity (RH) at 25° C.): about 0.3 wt. % | Relative stability of crystalline forms (form obtained from equal amounts of Form 1 and Form 2) [2]: more stable crystalline form | Time chemically and physically stable in the solid form ([3]; 40° C./75% RH): at least 10 days | Time chemically and physically stable in the solid form ([3]; 60° C.): at least 10 days | Time chemically and physically stable ([3]; ambient temperature and humidity): at least 12 months

— patent US20260209205A1, “CRYSTALLINE FORMS OF A TYK2 INHIBITOR AND USES THEREOF” (Alumis Inc., priority 2022, published 2026)
